These results are taken from patent US11492335B2, “Aryl or heteroaryl triazolone derivatives or salts thereof, or pharmaceutical compositions comprising the same” (YUHAN CORPORATION, priority 2018, dated 2022).

Molecules are shown by their SMILES. Counter-ions that a name gives are not always drawn. Like-named read-outs stand apart in the source and are kept apart here. Where only a bound is given, the exact number is not on record here.

Common to all, as to assay type: biochemical
For one test, the target named is T1, recombinant human VAP-1 (Homo sapiens, UniProt Q16853).
T1 construct: purchased R&D systems
T1 sequence (Q16853 1-763): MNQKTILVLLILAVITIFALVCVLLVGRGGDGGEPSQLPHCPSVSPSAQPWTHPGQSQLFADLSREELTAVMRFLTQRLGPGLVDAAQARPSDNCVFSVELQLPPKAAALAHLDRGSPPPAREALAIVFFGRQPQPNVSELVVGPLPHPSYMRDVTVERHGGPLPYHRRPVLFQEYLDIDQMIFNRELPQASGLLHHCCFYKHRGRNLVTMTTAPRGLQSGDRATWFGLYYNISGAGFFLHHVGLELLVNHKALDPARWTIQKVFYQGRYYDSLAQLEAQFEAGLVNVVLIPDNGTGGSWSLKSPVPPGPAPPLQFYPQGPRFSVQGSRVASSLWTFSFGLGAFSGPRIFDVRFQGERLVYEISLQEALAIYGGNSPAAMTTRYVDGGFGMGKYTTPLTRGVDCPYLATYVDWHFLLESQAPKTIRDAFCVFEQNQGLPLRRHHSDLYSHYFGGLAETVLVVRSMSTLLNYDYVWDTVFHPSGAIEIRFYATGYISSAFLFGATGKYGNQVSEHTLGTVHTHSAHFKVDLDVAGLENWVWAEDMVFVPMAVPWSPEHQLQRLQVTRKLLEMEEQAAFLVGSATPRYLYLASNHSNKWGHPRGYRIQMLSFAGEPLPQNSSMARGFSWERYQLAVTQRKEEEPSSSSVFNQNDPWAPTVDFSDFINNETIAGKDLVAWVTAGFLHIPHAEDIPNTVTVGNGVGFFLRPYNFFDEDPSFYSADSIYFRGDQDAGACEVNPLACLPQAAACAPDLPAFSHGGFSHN
Briefly: Activity on recombinant human VAP-1, Amplex Red HRP-coupled hydrogen peroxide assay, benzylamine substrate. The following applies: recombinant human VAP-1, benzylamine substrate, read-out: Inhibitory Activity (IC50, nM) human VAP-1. An outline of the steps:
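8-point 1:3 dilutions, final DMSO <1%; 30 min enzyme preincubation, 37 °C, pH 7.4 phosphate. Start: 1 mM benzylamine + 200 uM Amplex Red + 1 U/mL HRP. Read ex544/em590 over 1-2 h; % rate decrease vs DMSO control, 4-parameter logistic IC50.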

Test [1] concerns the target T2, recombinant human DAO (diamine oxidase) (Homo sapiens, UniProt P19801).
T2 construct: purchased R&D systems
T2 sequence (P19801 20-751): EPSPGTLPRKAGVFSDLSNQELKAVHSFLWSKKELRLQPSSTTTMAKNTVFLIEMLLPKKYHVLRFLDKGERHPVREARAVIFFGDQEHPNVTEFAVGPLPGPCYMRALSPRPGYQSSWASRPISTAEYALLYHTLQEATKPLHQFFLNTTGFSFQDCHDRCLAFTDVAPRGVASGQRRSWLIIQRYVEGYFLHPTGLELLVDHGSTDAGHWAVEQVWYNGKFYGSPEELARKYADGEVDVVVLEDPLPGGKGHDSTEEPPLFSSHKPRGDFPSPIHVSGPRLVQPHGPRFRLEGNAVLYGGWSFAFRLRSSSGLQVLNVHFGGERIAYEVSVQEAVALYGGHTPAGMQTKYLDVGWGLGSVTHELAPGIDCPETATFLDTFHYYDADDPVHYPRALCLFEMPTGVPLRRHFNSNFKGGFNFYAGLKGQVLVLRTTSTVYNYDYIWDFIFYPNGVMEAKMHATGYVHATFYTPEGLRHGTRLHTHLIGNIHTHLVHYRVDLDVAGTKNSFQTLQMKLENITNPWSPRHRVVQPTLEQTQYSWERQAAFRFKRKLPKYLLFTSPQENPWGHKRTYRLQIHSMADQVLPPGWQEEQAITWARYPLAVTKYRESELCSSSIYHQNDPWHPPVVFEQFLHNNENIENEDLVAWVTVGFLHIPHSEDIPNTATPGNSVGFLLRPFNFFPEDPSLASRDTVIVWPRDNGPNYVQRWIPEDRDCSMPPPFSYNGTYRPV
Description: Activity on recombinant human DAO, Amplex Red method, 1 mM putrescine substrate. The following applies: recombinant human DAO, read-out: Inhibitory Activity (IC50, nM) DAO. In a few lines: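 Inhibition of recombinant human DAO (diamine oxidase, R&D systems) was assessed with the Amplex Red Hydrogen Peroxide Assay Kit. Hydrogen peroxide produced from 1 mM putrescine was detected through an HRP-coupled reaction that converts Amplex Red into fluorescent resorufin, read at 544 nm excitation and 590 nm emission. IC50 values came from four-parameter logistic fits in GraphPad Prism.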

In test [2] the target is T3, recombinant human MAO-B (monoamine oxidase-B) (Homo sapiens, UniProt P27338).
T3 construct: purchased Sigma-Aldrich
T3 sequence (P27338 1-520): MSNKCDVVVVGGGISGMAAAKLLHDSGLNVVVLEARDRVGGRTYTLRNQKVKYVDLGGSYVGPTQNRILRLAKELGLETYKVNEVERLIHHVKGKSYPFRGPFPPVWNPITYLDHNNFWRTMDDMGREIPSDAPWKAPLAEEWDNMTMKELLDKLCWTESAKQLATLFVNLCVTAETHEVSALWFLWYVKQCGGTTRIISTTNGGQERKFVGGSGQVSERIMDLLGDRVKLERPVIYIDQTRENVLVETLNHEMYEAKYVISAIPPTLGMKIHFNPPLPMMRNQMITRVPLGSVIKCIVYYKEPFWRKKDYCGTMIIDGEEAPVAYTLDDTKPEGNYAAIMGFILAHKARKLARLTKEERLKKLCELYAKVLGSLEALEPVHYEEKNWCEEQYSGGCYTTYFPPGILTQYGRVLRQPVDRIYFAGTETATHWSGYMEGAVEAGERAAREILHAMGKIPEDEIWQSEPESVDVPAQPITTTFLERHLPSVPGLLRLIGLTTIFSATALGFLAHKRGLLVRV
Briefly: Activity on recombinant human MAO-B, Amplex Red method, 1 mM benzylamine substrate. The following applies: read-out: Inhibitory Activity (IC50, nM) MAO-B. In a few lines: (§1)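 HRP-coupled Amplex Red H2O2 assay, 50 mM sodium phosphate pH 7.4; compounds (8-point 1:3 series, final DMSO <1%) preincubated with enzyme 30 min at 37° C, then 200 uM Amplex Red, 1 U/mL HRP and substrate (MAO-A 0.5 mM tyramine; MAO-B 1 mM benzylamine) added. Resorufin fluorescence (ex 544/em 590 nm) read over 1-2 h; IC50 from four-parameter logistic fit.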

Test [3] has as its target T4, recombinant human MAO-A (monoamine oxidase-A) (Homo sapiens, UniProt P21397).
T4 construct: purchased Sigma-Aldrich
T4 sequence (P21397 1-527): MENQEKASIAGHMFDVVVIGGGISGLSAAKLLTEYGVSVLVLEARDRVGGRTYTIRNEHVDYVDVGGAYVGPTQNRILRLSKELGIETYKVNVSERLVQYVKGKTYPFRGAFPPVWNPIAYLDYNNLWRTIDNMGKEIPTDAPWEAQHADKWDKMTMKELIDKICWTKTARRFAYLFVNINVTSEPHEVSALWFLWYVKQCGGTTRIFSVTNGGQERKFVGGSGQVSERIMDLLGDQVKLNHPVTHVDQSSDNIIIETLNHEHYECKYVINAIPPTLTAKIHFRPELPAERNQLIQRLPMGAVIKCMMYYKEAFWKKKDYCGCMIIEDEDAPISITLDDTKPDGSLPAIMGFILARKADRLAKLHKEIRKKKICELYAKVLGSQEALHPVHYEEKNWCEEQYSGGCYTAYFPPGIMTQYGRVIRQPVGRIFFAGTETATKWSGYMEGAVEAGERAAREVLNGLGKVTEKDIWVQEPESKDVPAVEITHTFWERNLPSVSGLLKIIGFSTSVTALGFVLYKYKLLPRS
Description: Activity on recombinant human MAO-A, Amplex Red method, 0.5 mM tyramine substrate. The note with it: read-out: Inhibitory Activity (IC50, nM) MAO-A. An outline of the steps: as §1

Where [4] appears, read: 1 mM putrescine, * = between 10 and 100 nM, ** = between 300 and 1000 nM.

Consider `Cc1cc(-n2cnn(C/C(=C/F)CN)c2=O)ccc1Br` [Example 16, 2-[(2E)-2-(aminomethyl)-3-fluoroprop-2-en-1-yl]-4-(4-bromo-3-methylphenyl)-2,4-dihydro-3H-1,2,4-triazol-3-one hydrochloride], for which the 50% inhibitory concentration (IC50) worked out at 0.74 nM at recombinant human VAP-1 (30 min preincubation at 37° C.), 12 nM in test [1] (setting [4]), 141 nM in test [2] (1 mM benzylamine) and 32000 nM in test [3] (0.5 mM tyramine).

With `Cc1cc(-c2ccc(S(C)(=O)=O)cc2)cnc1-n1cnn(C/C(=C/F)CN)c1=O` [Example 133, 2-[(2E)-2-(aminomethyl)-3-fluoroprop-2-en-1-yl]-4-{3-methyl-5-[4-(methylsulfonyl)phenyl]pyridin-2-yl}-2,4-dihydro-3H-1,2,4-triazol-3-one hydrochloride], the half-maximal inhibitory concentration (IC50) at recombinant human VAP-1 (30 min preincubation at 37° C.) is 0.84 nM; in test [1] (setting [4]), 220 nM; in test [2] (1 mM benzylamine), over 10000 nM; in test [3] (0.5 mM tyramine), over 100000 nM.

On to `NC/C(=C\F)Cn1ncn(-c2cccc(-c3ccc(C(F)(F)F)nc3)c2)c1=O` [Example 84, 2-[(2E)-2-(aminomethyl)-3-fluoroprop-2-en-1-yl]-4-{3-[6-(trifluoromethyl)pyridin-3-yl]phenyl}-2,4-dihydro-3H-1,2,4-triazol-3-one hydrochloride], for which the IC50 on recombinant human VAP-1 (30 min preincubation at 37° C.) was 0.78 nM; in test [1] (setting [4]), under 10 nM; in test [2] (1 mM benzylamine), 3000 nM; in test [3] (0.5 mM tyramine), over 100000 nM.

Consider `NC/C(=C\F)Cn1ncn(-c2cccc(-c3ccc(C(F)(F)F)nc3)n2)c1=O` [Example 187, 2-[(2E)-2-(aminomethyl)-3-fluoroprop-2-en-1-yl]-4-[6′-(trifluoromethyl)-2,3′-bipyridin-6-yl]-2,4-dihydro-3H-1,2,4-triazol-3-one hydrochloride], for which the IC50 at recombinant human VAP-1 was 0.45 nM; in test [1] (1 mM putrescine substrate), under 10 nM; in test [2] (1 mM benzylamine substrate) it was 940 nM; in test [3] (0.5 mM tyramine substrate), over 100000 nM.

Take `NC/C(=C\F)Cn1ncn(-c2cc(-c3ccc4sc(N)nc4c3)ccn2)c1=O` [Example 173, 4-[4-(2-amino-1,3-benzothiazol-5-yl)pyridin-2-yl]-2-[(2E)-2-(aminomethyl)-3-fluoroprop-2-en-1-yl]-2,4-dihydro-3H-1,2,4-triazol-3-one]: the IC50 on recombinant human VAP-1 is 0.41 nM; in test [1] (1 mM putrescine substrate), 5.9 nM; in test [2] (1 mM benzylamine substrate), over 10000 nM; in test [3] (0.5 mM tyramine substrate) it was over 100000 nM.

Turning to `NC/C(=C/F)Cn1ncn(-c2ccc(Br)cc2F)c1=O` [Example 11, 2-[(2Z)-2-(aminomethyl)-3-fluoroprop-2-en-1-yl]-4-(4-bromo-2-fluorophenyl)-2,4-dihydro-3H-1,2,4-triazol-3-one hydrochloride], the 50% inhibitory concentration (IC50) was 1.5 nM at recombinant human VAP-1 (30 min preincubation at 37° C.), 209 nM in test [1] (setting [4]), 12 nM in test [2] (1 mM benzylamine) and 200 nM in test [3] (0.5 mM tyramine).

`Cc1ccc(-c2ccc(C(=O)N3CCOCC3)cc2)nc1-n1cnn(C/C(=C/F)CN)c1=O` [Example 211, 2-[(2E)-2-(aminomethyl)-3-fluoroprop-2-en-1-yl]-4-{3-methyl-6-[4-(morpholin-4-ylcarbonyl)phenyl]pyridin-2-yl}-2,4-dihydro-3H-1,2,4-triazol-3-one hydrochloride]: the IC50 at recombinant human VAP-1 was 49 nM; in test [1] (1 mM putrescine substrate) it was 3500 nM; in test [2] (1 mM benzylamine substrate), over 10000 nM; in test [3] (0.5 mM tyramine substrate), over 100000 nM.

As to `NC/C(=C/F)Cn1ncn(-c2ncc(Br)s2)c1=O` [Example 40, 2-[(2Z)-2-(aminomethyl)-3-fluoroprop-2-en-1-yl]-4-(5-bromo-1,3-thiazol-2-yl)-2,4-dihydro-3H-1,2,4-triazol-3-one hydrochloride], the concentration for half-maximal inhibition (IC50) on recombinant human VAP-1 (30 min preincubation at 37° C.) was 1.1 nM; in test [1] (setting [4]), 25 nM; in test [2] (1 mM benzylamine) it was 619 nM; in test [3] (0.5 mM tyramine), 80 nM.

Regarding `Cc1cc(-c2ccc(-c3nc[nH]n3)cc2)ncc1-n1cnn(C/C(=C/F)CN)c1=O` [Example 121, 2-[(2E)-2-(aminomethyl)-3-fluoroprop-2-en-1-yl]-4-{4-methyl-6-[4-(1H-1,2,4-triazol-3-yl)phenyl]pyridin-3-yl}-2,4-dihydro-3H-1,2,4-triazol-3-one], the IC50 on recombinant human VAP-1 (30 min preincubation at 37° C.) is 0.7 nM; in test [1] (setting [4]) it was under 100 nM; in test [2] (1 mM benzylamine), 456 nM; in test [3] (0.5 mM tyramine), over 100000 nM.

For `COc1ccc(C#Cc2cccc(-n3cnn(C/C(=C/F)CN)c3=O)n2)cn1` [Example 247, 2-[(2E)-2-(aminomethyl)-3-fluoroprop-2-en-1-yl]-4-{6-[(6-methoxypyridin-3-yl)ethynyl]pyridin-2-yl}-2,4-dihydro-3H-1,2,4-triazol-3-one], the IC50 was 0.3 nM at recombinant human VAP-1, 14 nM in test [1] (1 mM putrescine substrate), 4300 nM in test [2] (1 mM benzylamine substrate) and over 100000 nM in test [3] (0.5 mM tyramine substrate).

The term IC50 denotes the concentration needed to halve the response being measured.
